ChEMBL document CHEMBL5113508, “Targeting Human CD22/Siglec-2 with Dimeric Sialosides as Novel Oligosaccharide Mimetics” (J Med Chem, 2022)
pIC50: −log10 of the molar value.

How the values were obtained:
[1] = target: B-cell receptor CD22 (Homo sapiens) (UniProt P20273); experiment: (§1) Inhibition of CD22 in human Daudi cells assessed as relative inhibitory potency in presence of biotinylated dimeric 2-(78-biotinoylamino-1,4,7,10,13,16-hexaoxa-octadecyl)-1,4-bis(2-aza-l-oxo-8-(sodium(5-acetamido-3,5,9-trideoxy-9-(4-phenylbenzamido)-D-glycero-a-D-galacto-non-2-ulopyranosyloxyonate))-5-thia-octyl) benzene preincubated for 15 mins followed by probe addition incubated for 20 mins by flow cytometric analysis relative to 1,4-bis-(2-Aza-1-oxo-8-(sodium(5-acetamido-3,5,9-trideoxy-9-(4-phenylbenzamido)-D-glycero-alpha-D-galacto-non-2-ulopyranosyloxyonate))-5-thia-octyl)benzene; format: cell-based; conditions: time 35.0 min
[2] = target: B-cell receptor CD22 (Homo sapiens) (UniProt P20273); experiment: Inhibition of to hFc tagged CD22 (unknown origin) assessed as relative inhibitory potency incubated for 4 hrs by ELISA relative to 1,4-bis-(2-Aza-1-oxo-8-(sodium(5-acetamido-3,5,9-trideoxy-9-(4-phenylbenzamido)-D-glycero-alpha-D-galacto-non-2-ulopyranosyloxyonate))-5-thia-octyl)benzene
[3] = target: T1, B-cell receptor CD22 (Homo sapiens, UniProt P20273); experiment: Inhibition of CD22 in human Daudi cells preincubated for 15 mins followed by biotinylated dimeric 2-(78-biotinoylamino-1,4,7,10,13,16-hexaoxa-octadecyl)-1,4-bis(2-aza-l-oxo-8-(sodium(5-acetamido-3,5,9-trideoxy-9-(4-phenylbenzamido)-D-glycero-a-D-galacto-non-2-ulopyranosyloxyonate))-5-thia-octyl) benzene probe addition incubated for 20 mins by flow cytometric analysis; format: cell-based
T1 sequence (P20273 whole entry): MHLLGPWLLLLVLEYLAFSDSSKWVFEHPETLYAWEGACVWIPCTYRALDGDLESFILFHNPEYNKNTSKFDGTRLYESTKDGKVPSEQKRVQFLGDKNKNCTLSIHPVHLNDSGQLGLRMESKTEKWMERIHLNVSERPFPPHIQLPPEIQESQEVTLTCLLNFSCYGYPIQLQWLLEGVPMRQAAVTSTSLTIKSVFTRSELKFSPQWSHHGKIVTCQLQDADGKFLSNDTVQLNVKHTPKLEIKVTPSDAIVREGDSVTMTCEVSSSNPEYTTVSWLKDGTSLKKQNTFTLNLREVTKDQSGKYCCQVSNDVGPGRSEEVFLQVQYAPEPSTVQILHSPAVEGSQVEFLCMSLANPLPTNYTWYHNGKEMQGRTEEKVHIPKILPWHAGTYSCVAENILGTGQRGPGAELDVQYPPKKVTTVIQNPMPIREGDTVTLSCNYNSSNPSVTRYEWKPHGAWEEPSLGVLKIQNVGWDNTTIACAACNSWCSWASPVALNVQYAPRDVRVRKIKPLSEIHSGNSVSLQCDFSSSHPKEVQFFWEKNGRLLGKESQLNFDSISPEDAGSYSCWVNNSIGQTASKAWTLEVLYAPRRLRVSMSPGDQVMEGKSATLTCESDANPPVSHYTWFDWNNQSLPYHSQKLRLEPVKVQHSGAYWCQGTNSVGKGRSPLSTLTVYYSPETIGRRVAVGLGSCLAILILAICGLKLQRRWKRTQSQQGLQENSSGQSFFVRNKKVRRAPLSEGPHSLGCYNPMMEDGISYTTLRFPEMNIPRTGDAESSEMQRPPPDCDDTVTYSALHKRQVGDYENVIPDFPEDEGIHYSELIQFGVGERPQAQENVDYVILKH

[4] = target: B-cell receptor CD22 (Homo sapiens) (UniProt P20273); experiment: as §1, with “CD22 (unknown origin)” for “CD22”, “1,4-Bis-(2-aza-1-oxo-8-(sodium-(5-acetamido-3,5-dideoxy-D-glycero-alpha-D-galacto-non-2-ulopyranosyloxyonate))-5-thia-octyl)benzene” for “1,4-bis-(2-Aza-1-oxo-8-(sodium(5-acetamido-3,5,9-trideoxy-9-(4-phenylbenzamido)-D-glycero-alpha-D-galacto-non-2-ulopyranosyloxyonate))-5-thia-octyl)benzene”; format: cell-based; conditions: time 35.0 min
[5] = target: B-cell receptor CD22 (Homo sapiens) (UniProt P20273); experiment: Inhibition of hFc tagged CD22 (unknown origin) assessed as relative inhibitory potency incubated for 4 hrs by ELISA relative to 1,4-Bis-(2-aza-1-oxo-8-(sodium-(5-acetamido-3,5-dideoxy-D-glycero-alpha-D-galacto-non-2-ulopyranosyloxyonate))-5-thia-octyl)benzene
[6] = target: T1, B-cell receptor CD22; experiment: Inhibition hFc tagged CD22 incubated for 4 hrs by ELISA
[7] = target: B-cell receptor CD22 (Homo sapiens) (UniProt P20273); experiment: Antagonist activity at CD22 in IgM stimulated human Daudi cells assessed as increase in calcium flux incubated for 10 mins by flow cytometric analysis; format: cell-based; conditions: dose 2-200 µM, DDE = dose-dependent effect

Row | fold change (FC) [1] | fold change (FC) [2] | Structure (SMILES) | further results
1 | 0.00034 | 0.01 | CC(=O)N[C@H]1[C@H]([C@H](O)[C@H](O)CO)O[C@@](OCCCSCCNC(=O)c2ccc(C(=O)NCCSCCCO[C@]3(C(=O)O)C[C@H](O)[C@@H](NC(C)=O)[C@H]([C@H](O)[C@H](O)CO)O3)cc2)(C(=O)O)C[C@@H]1O | 
2 | 5.9 | 0.77 | CC(=O)N[C@H]1[C@H]([C@H](O)[C@H](O)CNC(=O)c2ccc(-c3ccccc3)cc2)O[C@@](OCCCSCCNC(=O)c2ccc(C(=O)NCCSCCCO[C@]3(C(=O)O)C[C@H](O)[C@@H](NC(C)=O)[C@H]([C@H](O)[C@H](O)CNC(=O)c4ccc(-c5ccccc5)cc4)O3)c(Br)c2)(C(=O)O)C[C@@H]1O | 
3 | 1.3 | 5.3 | CC(=O)N[C@H]1[C@H]([C@H](O)[C@H](O)CNC(=O)c2ccc(-c3ccccc3Cl)cc2)O[C@@](OCCCSCCNC(=O)c2ccc(C(=O)NCCSCCCO[C@]3(C(=O)O)C[C@H](O)[C@@H](NC(C)=O)[C@H]([C@H](O)[C@H](O)CNC(=O)c4ccc(-c5ccccc5Cl)cc4)O3)cc2)(C(=O)O)C[C@@H]1O | 
4 | 0.011 | 0.1 | CC(=O)N[C@H]1[C@H]([C@H](O)[C@H](O)CNC(=O)c2ccc(-c3ccccc3)cc2)O[C@@](OCCCSCCNCc2ccc(CNCCSCCCO[C@]3(C(=O)O)C[C@H](O)[C@@H](NC(C)=O)[C@H]([C@H](O)[C@H](O)CNC(=O)c4ccc(-c5ccccc5)cc4)O3)cc2)(C(=O)O)C[C@@H]1O | 
5 | 0.008 | 0.1 | CC(=O)N[C@H]1[C@H]([C@H](O)[C@H](O)CNC(=O)c2ccc(C3CCCCC3)cc2)O[C@@](OCCCSCCNC(=O)c2ccc(C(=O)NCCSCCCO[C@]3(C(=O)O)C[C@H](O)[C@@H](NC(C)=O)[C@H]([C@H](O)[C@H](O)CNC(=O)c4ccc(C5CCCCC5)cc4)O3)cc2)(C(=O)O)C[C@@H]1O | 
6 | 0.71 | 1.6 | CC(=O)N[C@H]1[C@H]([C@H](O)[C@H](O)CNC(=O)c2ccc(-c3ccsc3)cc2)O[C@@](OCCCSCCNC(=O)c2ccc(C(=O)NCCSCCCO[C@]3(C(=O)O)C[C@H](O)[C@@H](NC(C)=O)[C@H]([C@H](O)[C@H](O)CNC(=O)c4ccc(-c5ccsc5)cc4)O3)cc2)(C(=O)O)C[C@@H]1O | 
7 | 0.01 | 0.17 | CC(=O)N[C@H]1[C@H]([C@H](O)[C@H](O)CNC(=O)c2ccc(-c3ccccc3)cc2)O[C@@](OCCCSCCNC(=O)c2ccc(-c3ccc(C(=O)NCCSCCCO[C@]4(C(=O)O)C[C@H](O)[C@@H](NC(C)=O)[C@H]([C@H](O)[C@H](O)CNC(=O)c5ccc(-c6ccccc6)cc5)O4)cc3)cc2)(C(=O)O)C[C@@H]1O | 
8 | 0.073 | 0.77 | CC(=O)N[C@H]1[C@H]([C@H](O)[C@H](O)CNC(=O)c2ccc(-c3ccccc3)cc2)O[C@@](OCCCSCCNC(=O)CCCCC(=O)NCCSCCCO[C@]2(C(=O)O)C[C@H](O)[C@@H](NC(C)=O)[C@H]([C@H](O)[C@H](O)CNC(=O)c3ccc(-c4ccccc4)cc3)O2)(C(=O)O)C[C@@H]1O | pIC50 [3]: 4.62
9 |  |  | CC(=O)N[C@H]1[C@H]([C@H](O)[C@H](O)CNC(=O)c2ccc(-c3ccccc3)cc2)O[C@@](OCCCSCCNC(=O)c2ccc(C(=O)NCCSCCCO[C@]3(C(=O)O)C[C@H](O)[C@@H](NC(C)=O)[C@H]([C@H](O)[C@H](O)CNC(=O)c4ccc(C5CCCCC5)cc4)O3)cc2)(C(=O)O)C[C@@H]1O | fold change (FC) [4]: 185
10 | 1.5 | 0.1 | CC(=O)N[C@H]1[C@H]([C@H](O)[C@H](O)CNC(=O)c2ccc(-c3ccccc3)cc2)O[C@@](OCCCSCCC(=O)Nc2ccc(NC(=O)CCSCCCO[C@]3(C(=O)O)C[C@H](O)[C@@H](NC(C)=O)[C@H]([C@H](O)[C@H](O)CNC(=O)c4ccc(-c5ccccc5)cc4)O3)cc2)(C(=O)O)C[C@@H]1O | 
11 | 34 |  | CC(=O)N[C@H]1[C@H]([C@H](O)[C@H](O)CNC(=O)c2ccc(-c3ccccc3)cc2)O[C@@](OCCCSCCNC(=O)c2ccc(C(=O)NCCSCCCO[C@]3(C(=O)O)C[C@H](NS(=O)(=O)O)[C@@H](NC(C)=O)[C@H]([C@H](O)[C@H](O)CNC(=O)c4ccc(-c5ccccc5)cc4)O3)c(OCCOCCOCCOCCOCCOCCN)c2)(C(=O)O)C[C@@H]1NS(=O)(=O)O | 
12 |  |  | CC(=O)N[C@H]1[C@H]([C@H](O)[C@H](O)CNC(=O)c2ccc(-c3ccccc3)cc2)O[C@@](OCCCSCCNC(=O)c2ccccc2)(C(=O)O)C[C@@H]1O | fold change (FC) [5]: 128; pIC50 [6]: 9.49
13 | 0.14 |  | CC(=O)N[C@H]1[C@H]([C@H](O)[C@H](O)CNC(=O)c2ccc(-c3ccccc3)cc2)O[C@@](OCCCSCCNC(=O)c2ccc(C(=O)NCCSCCCO[C@]3(C(=O)O)C[C@H](O)[C@@H](NC(C)=O)[C@H]([C@H](O)[C@H](O)CNC(=O)c4ccc(-c5ccccc5)cc4)O3)c(OCCOCCOCCOCCOCCOCCN)c2)(C(=O)O)C[C@@H]1O | 
14 | < 0.0001 | 0.86 | CC(=O)N[C@H]1[C@H]([C@H](O)[C@H](O)CNC(=O)c2ccc(-c3ccccc3)cc2)O[C@](C(=O)O)(n2cc(CCCCNC(=O)c3ccc(C(=O)NCCCCc4cn([C@]5(C(=O)O)C[C@H](O)[C@@H](NC(C)=O)[C@H]([C@H](O)[C@H](O)CNC(=O)c6ccc(-c7ccccc7)cc6)O5)nn4)cc3)nn2)C[C@@H]1O | 
15 | 3.7 | 1.2 | CC(=O)N[C@H]1[C@H]([C@H](O)[C@H](O)CNC(=O)c2ccc(-c3ccccc3)cc2)O[C@@](OCCCSCCNC(=O)c2ccc(C(=O)NCCSCCCO[C@]3(C(=O)O)C[C@H](O)[C@@H](NC(C)=O)[C@H]([C@H](O)[C@H](O)CNC(=O)c4ccc(-c5cccs5)cc4)O3)cc2)(C(=O)O)C[C@@H]1O | 
16 |  |  | CC(=O)N[C@H]1[C@H]([C@H](O)[C@H](O)CO)O[C@@](OCCCSCCNC(=O)c2ccc(C(=O)NCCSCCCO[C@]3(C(=O)O)C[C@H](O)[C@@H](NC(C)=O)[C@H]([C@H](O)[C@H](O)CNC(=O)c4ccc(-c5ccccc5)cc4)O3)cc2)(C(=O)O)C[C@@H]1O | fold change (FC) [5]: 105; fold change (FC) [4]: 135; Activity [7]: Dde; pIC50 [6]: 9.41
17 | 0.0028 | 0.18 | CC(=O)N[C@H]1[C@H]([C@H](O)[C@H](O)CNC(=O)c2ccc(-c3ccccc3)cc2)O[C@@](OCc2cn(CCNC(=O)c3ccc(C(=O)NCCn4cc(CO[C@]5(C(=O)O)C[C@H](O)[C@@H](NC(C)=O)[C@H]([C@H](O)[C@H](O)CNC(=O)c6ccc(-c7ccccc7)cc6)O5)nn4)cc3)nn2)(C(=O)O)C[C@@H]1O | 
18 | 0.07 | 4.5 | CC(=O)N[C@H]1[C@H]([C@H](O)[C@H](O)CNC(=O)c2ccc(-c3cccs3)s2)O[C@@](OCCCSCCNC(=O)c2ccc(C(=O)NCCSCCCO[C@]3(C(=O)O)C[C@H](O)[C@@H](NC(C)=O)[C@H]([C@H](O)[C@H](O)CNC(=O)c4ccc(-c5cccs5)s4)O3)cc2)(C(=O)O)C[C@@H]1O | 
19 | 0.013 | 0.49 | CC(=O)N[C@H]1[C@H]([C@H](O)[C@H](O)CNC(=O)c2ccc(-c3ccccc3)cc2)O[C@@](OCCC[S+]([O-])CCNC(=O)c2ccc(C(=O)NCC[S+]([O-])CCCO[C@]3(C(=O)O)C[C@H](O)[C@@H](NC(C)=O)[C@H]([C@H](O)[C@H](O)CNC(=O)c4ccc(-c5ccccc5)cc4)O3)cc2)(C(=O)O)C[C@@H]1O (some centres not stated) | 
20 | 0.11 | 0.79 | CC(=O)N[C@H]1[C@H]([C@H](O)[C@H](O)CNC(=O)c2ccc(-c3ccccc3)cc2)O[C@@](OCCCSCCNC(=O)c2cccc(C(=O)NCCSCCCO[C@]3(C(=O)O)C[C@H](O)[C@@H](NC(C)=O)[C@H]([C@H](O)[C@H](O)CNC(=O)c4ccc(-c5ccccc5)cc4)O3)c2)(C(=O)O)C[C@@H]1O | 
21 | 138 | 65 | CC(=O)N[C@H]1[C@H]([C@H](O)[C@H](O)CNC(=O)c2ccc(-c3ccccc3)cc2)O[C@@](OCCCSCCNC(=O)c2ccc(C(=O)NCCSCCCO[C@]3(C(=O)O)C[C@H](NS(=O)(=O)O)[C@@H](NC(C)=O)[C@H]([C@H](O)[C@H](O)CNC(=O)c4ccc(-c5ccccc5)cc4)O3)cc2)(C(=O)O)C[C@@H]1NS(=O)(=O)O | 
